Patent US5811439A, “Thiazolidinedione derivatives, method for preparing the derivatives and pharmaceutical compositions containing same” (Senga Pharmaceutical Laboratory Inc., priority 1995, dated 1998)

system: 3T3-L1 cells; experiment: Glucose-uptake test (2-DOG uptake) in 3T3-L1 cells; format: cell-based; details: Mus musculus, 3T3-L1, 24 h, 50 μg/ml, cpm divided by amount of proteins, read-out: 2-DOG Uptake (%) at a concentration of 50 μg/ml
Procedure: Glucose-uptake tests as a means for screening compounds for the effect of reducing the blood sugar level were carried out according to the following procedures. 1) Cell: The following cells were used. 3T3-L1 (purchased from Dainippon Pharmaceutical Co. Ltd.) 2) Reagents: The following reagents were used. DMEM (GIBCO); FBS (GIBCO); […] DMSO: dimethylsulfoxide (Wako Pure Chemical Co., Ltd.); ACS2 (Amersham); urea (Wako Pure Chemical Co., Ltd.); protein-determining kit (Bio Rad Code No.). 3) Instrument: The following instrument was used in the test. 24-well plate (Falcon) 3T3-L1 cells were dispersed in a 10% FBS-containing DME medium in a cell concentration of 10000 cells/ml, the resulting cell suspension was dispensed into a 24-well plate in an amount of 1 ml per well and the cells were cultivated in a 5% CO2 -incubator at 37° C. for 5 days. After soaking up the medium in the wells, the plate was washed once with PBS in an amount of 2 ml/well. […] The cells were cultivated in a sample compound-containing medium at 37° C. for 24 hours in a 5%-CO2 -incubator. After the cultivation, the medium was soaked up and the plate was washed three times with 2 ml/well each of PBS. […] After washing with 2 ml/well of PBS, the PBS was sufficiently soaked up. […] The lysate was also inspected for the amount of proteins using 0.2 ml out of the rest of the lysate, according to the microassay method using a protein-determining kit.

SMILES	activity at 50 µg/mL [%]
O=C1NC(=O)C(Cc2cccc3c2ccn3Cc2ccc3c(c2)OCO3)S1 (stereo not drawn) [Example 112, 5-(1-piperonylindole-4-yl)methyl-2,4-thiazolidinedione]	155
O=C1NC(=O)C(Cc2cn(Cc3ccc(C(F)(F)F)cc3)c3ccccc23)S1 (stereo not drawn) [Example 271, 5-{1-[4-(trifluoromethyl)benzyl]indol-3-yl}methyl-2,4-thiazolidinedione]	165
COC(=O)c1ccc(Cn2ccc3c(CC4SC(=O)NC4=O)cccc32)cc1 (stereo not drawn) [Example 9, 5-[1-(4-methoxycarbonylbenzyl)indol-4-yl]methyl-2,4-thiazolidinedione]	180
O=C1NC(=O)C(Cc2cn(Cc3ccc(Cl)cc3)c3ccccc23)S1 (stereo not drawn) [Example 253, 5-[1-(4-chlorobenzyl)indol-3-yl]methyl-2,4-thiazolidinedione]	203
CC(c1ccccc1)n1ccc2c(C=C3SC(=O)NC3=O)cccc21 (stereo not drawn) [Example 173, 5-[1-(α-methylbenzyl)indol-4-yl]methylene-2,4-thiazolidinedione]	153
O=C1NC(=O)C(Cc2ccc3c(ccn3CCc3ccccc3)c2)S1 (stereo not drawn) [Example 305, 5-(1-phenethylindol-5-yl)methyl-2,4-thiazolidinedione]	215
O=C1NC(=O)C(Cc2cccc3c2ccn3Cc2ccc(F)cc2)S1 (stereo not drawn) [Example 52, 5-[1-(4-fluorobenzyl)indol-4-yl]-methyl-2,4-thiazolidinedione]	280
CCC(CC)Cn1ccc2c(C=C3SC(=O)NC3=O)cccc21 [Example 158, 5-[1-(2-ethylbutyl)indol-4-yl]methylene-2,4-thiazolidinedione]	221
CC(c1ccccc1)n1ccc2c(CC3SC(=O)NC3=O)cccc21 (stereo not drawn) [Example 174, 5-[1-(α-methylbenzyl)indol-4-yl]methyl-2,4-thiazolidinedione]	252
O=C1NC(=O)C(Cc2cccc3c2ccn3Cc2ccc(C(F)(F)F)cc2C(F)(F)F)S1 (stereo not drawn) [Example 83, 5-{1-[2,4-bis(trifluoromethyl)-benzyl]indol-4-yl}methyl-2,4-thiazolidine-dione]	199
N#Cc1ccc(Cn2cc(CC3SC(=O)NC3=O)c3ccccc32)cc1 (stereo not drawn) [Example 285, 5-[1-(4-cyanobenzyl)indol-3-yl]methyl-2,4-thiazolidinedione]	225
COc1ccc(Cn2ccc3c(CC4SC(=O)NC4=O)cccc32)cc1OC (stereo not drawn) [Example 92, 5-[1-(3,4-dimethoxybenzyl)indol-4-yl]methyl-2,4-thiazolidinedione]	190
O=C1NC(=O)C(Cc2cccc3c2ccn3Cc2cc(F)ccc2F)S1 (stereo not drawn) [Example 62, 5-[1-(2,5-difluorobenzyl)indol-4-yl]-methyl-2,4-thiazolidinedione]	192
Cc1oc(-c2ccccc2)nc1Cn1ccc2c(C=C3SC(=O)NC3=O)cccc21 [Example 31, 5-{1-[(5-methyl-2-phenyloxazol-4-yl)methyl]indol-4-yl}methylene-2,4-thiazolidine-dione]	208
O=C1NC(=O)C(Cc2cccc3c2ccn3Cc2ccncc2)S1 (stereo not drawn) [Example 6, 5-[1-(4-picolyl)indol-4-yl]methyl-2,4-thiazolidinedione]	166
O=C1NC(=O)C(Cc2cccc3c2ccn3C(=O)Cc2ccccc2)S1 (stereo not drawn) [Example 13, 5-(1-phenylacetylindol-4-yl)methyl-2,4-thiazolidinedione]	150
O=C1NC(=O)C(Cc2cccc3c2ccn3Cc2ccccc2)S1 (stereo not drawn) [Example 3, 5-(1-benzylindol-4-yl)methyl-2,4-thiazolidinedione]	217
Nc1ccc(Cn2cc(CC3SC(=O)NC3=O)c3ccccc32)cc1 (stereo not drawn) [Example 256, 5-[1-(4-aminobenzyl)indol-3-yl]methyl-2,4-thiazolidinedione]	172
O=C1NC(=O)C(Cc2cccc3c2ccn3CC2CCc3ccccc3N2)S1 (stereo not drawn) [Example 148, 5-{1-[(1,2,3,4-tetrahydroquinol-2-yl)methyl]indol-4-yl}methyl-2,4-thiazolidinedione]	153
O=C1NC(=O)C(Cc2cccc3c2ccn3CCc2ccccc2)S1 (stereo not drawn) [Example 121, 5-(1-phenethylindol-4-yl)methyl-2,4-thiazolidinedione]	218
O=C1NC(=O)C(Cc2cn(Cc3ccc(O)cc3)c3ccccc23)S1 (stereo not drawn) [Example 317, 5-[1-(4-hydroxybenzyl)indol-3-yl]methyl-2,4-thiazolidinedione]	169
O=C1NC(=O)C(Cc2cccc3c2ccn3CCc2cccs2)S1 (stereo not drawn) [Example 139, 5-{1-[2-(thien-2-yl)ethyl]indol-4-yl}methyl-2,4-thiazolidinedione]	153

system: not listed separately; experiment: Acute toxicity test, oral administration to rats; details: rat, in vivo, orally administered
Procedure: The acute toxicity was determined by an acute toxicity test wherein each sample compound was orally administered to rats. The results (LD50 values) thus obtained are listed below: […]

SMILES	LD50 [mg/kg]
O=C1NC(=O)C(Cc2cccc3c2ccn3Cc2ccc(F)cc2)S1 (stereo not drawn) [Example 52, 5-[1-(4-fluorobenzyl)indol-4-yl]-methyl-2,4-thiazolidinedione]	≥ 2000
O=C1NC(=O)C(Cc2cccc3c2ccn3Cc2ccccc2)S1 (stereo not drawn) [Example 3, 5-(1-benzylindol-4-yl)methyl-2,4-thiazolidinedione]	≥ 2000
